Experimental data reported in US20080242680A1, “AGENT FOR THE PROPHYLAXIS OR TREATMENT OF NEURODEGENERATIVE DISEASE” (RIKEN, priority 2007, published 2008).
Where a SMILES comes first, the peptide text is derived from it. The star is where a group is joined. Cbz = O=C(OCc1ccccc1)*

What was measured:
[1] = system: tNhtt-150Q aggregates in Neuro2a cells; experiment: Blocking of UPS / macroautophagy on benzamil's disaggregating effect; assay type: cell-based, mouse
Experimental: (a) The UPS blocking remarkably abolished the effect of benzamil. In addition to the ponasterone A induction of tNhtt-150Q, Neuro2a cells were incubated with benzamil and proteasome inhibitor, i.e., lactacystin or MG-132, at two different concentrations. Lactacystin or MG-132 was also used as a control in the absence of benzamil. Lactacystin or MG-132 remarkably reversed and abolished the disaggregating effect of benzamil. […] MEF was incubated with 1 ng/ml doxycycline for 5 days, and polyQ of various lengths (+/−nls) was transiently transfected.
From the evidence obtained hitherto, it was not possible to exclude the possibility that autophagy, in company with UPS or secondary to UPS, […] in the degradation of soluble or aggregated tNhtt-polyQ by benzamil. To investigate whether or not other degradation pathways play a major role in the degradation of tNhtt-polyQ by benzamil, first, the proteasome pathway was blocked by a specific proteasome inhibitor, i.e., lactacystin or MG-132, and the number of tNhtt-polyQ aggregates under these experiment conditions was quantified. […] To further exclude the possibility that macroautophagy plays an important role in the benzamil-mediated tNhtt-polyQ clearance, used was a stable mouse embryonic fibroblast (MEF) cell line in which expression of autophagy gene 5 (Atg5) can be readily manipulated by addition of tetracycline. […] 2623-9 (2006)]. Truncated Nhtt-polyQ was transfected into the MEF that had been treated with doxycycline for 5 days, and then benzamil was added for 18 hr.

[2] = system: ubiquitin proteasome system (UPS) in Neuro2a cells; experiment: ubi-dsRED reporter of proteasome activity under MG-132 block; conditions: increasing MG-132 concentration
Experimental: DNA was transiently transfected into the Neuro2a cells using Lipofectamine 2000 (Invitrogen) according to the instruction manual. Generally, for the transient expression of tNhtt-polyQ and ubi-dsRED (or RFP), DNA was transfected in amounts of 200 ng and 70 ng, respectively. Cells were transfected for 5 hr, and the media were replaced for the subsequent treatment.
To quantify the percentage of aggregate, the number of RFP or ubi-dsRED cells or the ubi-dsRED intensity, used was an automated fluorescence microscopic imaging system (ArrayScan® VTI HCS Reader) equipped with image analysis modules (BioApplications) that automatically convert images into numerical data for capturing changes in cell size, shape, intensity and other properties thereof in a culturing format. […] To quantify the percentage of aggregates in the cells, in the first protocol, the number of EGFP-positive spots in each field was counted, and in the second protocol, the number of Hoechst-positive nuclei was counted in the same field. On the other hand, the quantification of RFP/ubi-dsRED cells could be achieved by a one scanning protocol. […] Generally, 30,000-50,000 cells were scanned in each well (about 200 scanning fields), and quantification data of at least 200,000 cells in each experiment setting were generated by ArrayScan®.

[3] = system: tNhtt-polyQ expression; experiment: Semi-quantitative PCR of tNhtt-polyQ transgene expression; assay type: cell-based, mouse; conditions: up to 50 μM
Experimental: Total RNA was extracted from the Neuro2a cells using an RNeasy® Mini Kit (QIAGEN) according to the instruction manual. To ensure complete removal of contaminating DNA, genomic DNA was digested with RNase-free DNase I (QIAGEN). The amount of total RNA was quantified based on the absorbance at 260 nm (GeneQuant, Amersham). Using SUPERSCRIPT™III RNase H^− Reverse Transcriptase (Invitrogen), 1 μg of RNA from each sample was transcribed into a cDNA. PCR was performed in a thermal cycler (BIO-RAD). For each primer, a cycle number that gives mid-log phase amplification was first determined, and the gene of interest was then amplified. The PCR product was separated by electrophoresis on 2.5% agarose gel. DNA images were captured by a UV transilluminator (TOYOBO CO., LTD.), and the band intensity was quantified by the ImageJ software (NCBI). Glyceraldehyde-3-phosphate-dehydrogenase (Gapdh) gene was amplified in each PCR experiment to serve as an internal loading control for a change in gene expression level. The PCR primers used in this research are as follows (synthesized by Sigma or Operon; all from 5′ to 3′; F-forward; R-reverse): NHE1-F […] (SEQ ID NO: 1), -R […] (SEQ ID NO: 2); NHE5-F […] (SEQ ID NO: 3), -R […] (SEQ ID NO: 4); NCX1-F […] (SEQ ID NO: 5), -R […] (SEQ ID NO: 6); NCX2-F […] (SEQ ID NO: 7), -R […] (SEQ ID NO: 8); NCX3-F […] (SEQ ID NO: 9), -R […] (SEQ ID NO: 10); BNaC1-F […] […]

[4] = system: SDS-resistant tNhtt-polyQ aggregates; experiment: Filter trap assay of SDS-resistant aggregates in cell lysates; assay type: cell-based, mouse; conditions: Neuro2a lysates, 2% SDS
Experimental: A filter trap assay was performed with a Hybri-Dot manifold (BIO-RAD) and a cellulose acetate membrane filter having a pore size of […] (Advantec). Concisely stated, cells ready for analysis were lysed in the same lysis buffer as that used for the Western blot and sonicated briefly, and the protein concentration were quantified according to the above-mentioned BCA method. For a brain sample, brain tissues were initially homogenized 10 strokes at 1500 rpm in a 5 cm^3 glass tube with 1 ml homogenization buffer (50 mM Tris-HCl, pH 7.4, 150 mM NaCl, 1% Triton X-100, 1 mM PMSF, and a complete protease inhibitor cocktail). Then, brain lysate was sonicated briefly, and the concentration was measured. The same amount of proteins from respective experiment conditions were each diluted by 2% SDS in PBS to 100 μl, and applied onto the membrane. The wells were washed twice with 2% SDS/PBS and vacuum-suctioned for 20 min, thereby aggregate insoluble in SDS being completely and securely trapped. The membranes were then blocked with 5% skim milk and Western blotting was proceeded.

[5] = system: Neuro2a cells; experiment: Cell death by proprium iodide (PI) staining; assay type: cell-based
From the text: ; *** and ****p<0.0001. […] . […] . […] .

[6] = system: tNhtt-polyQ aggregates in native Neuro2a cells; experiment: tNhtt-polyQ (+/-nls) aggregates in the transient expression system, ArrayScan quantification; conditions: transient 62 or 150 polyQ +/-nls, 50 μM added 5 hr after transfection, 12 hr
Experimental: Cells were transiently transfected for 5 hr with the indicated plasmid expressing various length of polyQ (+/−nls), and then 50 μM of benzamil was added. 12 hr later, cells were collected for quantification by the ArrayScan. n=3, *p<0.0001.
For the transient expression of tNhtt-polyQ, in order to avoid interference to transfection efficiency, the test drug was introduced 5 hours after transfection.
(§2) DNA was transiently transfected into the Neuro2a cells using Lipofectamine 2000 (Invitrogen) according to the instruction manual. Generally, for the transient expression of tNhtt-polyQ and ubi-dsRED (or RFP), DNA was transfected in amounts of 200 ng and 70 ng, respectively. […]
(§3) To quantify the percentage of aggregate, the number of RFP or ubi-dsRED cells or the ubi-dsRED intensity, used was an automated fluorescence microscopic imaging system (ArrayScan® VTI HCS Reader) equipped with image analysis modules (BioApplications) that automatically convert images into numerical data for capturing changes in cell size, shape, intensity and other properties thereof in a culturing format. […] To quantify the percentage of aggregates in the cells, in the first protocol, the number of EGFP-positive spots in each field was counted, and in the second protocol, the number of Hoechst-positive nuclei was counted in the same field. […]

[7] = system: tNhtt-polyQ-EGFP aggregates in Neuro2a cells; experiment: tNhtt-polyQ-EGFP aggregates in ponasterone A-inducible Neuro2a cells, ArrayScan quantification; assay type: cell-based, mouse
Experimental: ; polyQ, 60 or 150 polyglutamine repeats) is induced by 1 μM ponasterone A and which that can differentiate into neuronal phenotype cells in response to treatment with 5 mM N6,2′-O-dibutyryladenosine-3′,5′-cyclic monophosphate sodium salt (dbcAMP) [Wang, G. H. et al. Neuroreport 10, 2435-8 (1999)]. […] To eliminate the possibility of Ami and Ben decreasing aggregates by interfering with the ponasterone A-inducible system, native Neuro2a cells were transfected with an expression plasmid having 62 or 150 polyglutamine repeats in the presence or absence of a nuclear localization signal peptide (FIG. 2d).

[8] = Detection in cerebrospinal fluid (CSF); assay type: in vivo; conditions: experimental rats
[9] = system: R6/2 mice; experiment: Filter trap assay of whole brain lysates of R6/2 mice, anti-huntingtin (em48); assay type: in vivo, mouse; conditions: whole brain lysate, 8-week-old and 12-week-old, 1 or 5 mg/kg oral
Experimental: (§1) HD mouse model R6/2 containing 145 CAG repeats was originally purchased from The Jackson Laboratory. Mice carrying 120-130 CAG repeats (confirmed by PCR) were selected for an in vivo test with benzamil. Benzamil dissolved in water was orally administered in an amount of 5 mg/kg (Ben-5) or 1 mg/kg (Ben-1) once a day six times a week (no administration one day a week) starting from 4 week-old until death. The body weight was measured once a week. […] For the survival distribution, the number of days each mouse survived was recorded, and data collected for all treatments (mice survived for 13 weeks or longer; water, n=8; tg-Ben1, n=10; and tg-Ben5, n=9) were subjected to the Kaplan-Meier analysis followed by log-rank testing. […]
A filter trap assay was performed with a Hybri-Dot manifold (BIO-RAD) and a cellulose acetate membrane filter having a pore size of […] (Advantec). Concisely stated, cells ready for analysis were lysed in the same lysis buffer as that used for the Western blot and sonicated briefly, and the protein concentration were quantified according to the above-mentioned BCA method. […] Then, brain lysate was sonicated briefly, and the concentration was measured. […]

[10] = system: soluble tNhtt-60Q in Neuro2a cells; experiment: Chase experiment, degradation of soluble tNhtt-polyQ; assay type: cell-based, mouse; conditions: 50 μM, Day 0 to Day 4
Experimental: To determine whether soluble tNhtt-polyQ is degraded faster in the presence of benzamil, a chase experiment was performed, because inducible Neuro2a cells that express tNhtt-60Q were selected. Majority of the tNhtt-60Q remained soluble, and only few aggregates were observed one day after incubation. Concisely stated, Neuro2a cells were first differentiated, and induced to express hrtNhtt-60Q for 24 hours. Ponasterone A was removed thereafter (with dbcAMP maintaining the differentiation status), and the cells were incubated with water (control) or 50 μM benzamil (Day 0) for 4 days (Day 4). The medium was replaced with a fresh medium containing benzamil in the same concentration every 2 days, and cells were collected once a day until Day 4. Cells were then lysed, and expression of soluble tNhtt-60Q was analyzed by Western blot with an anti-huntingtin antibody (anti-em48).

[11] = system: R6/2 mice; experiment: Survival of R6/2 mice (Kaplan-Meier, log-rank); assay type: in vivo, mouse; conditions: tg-Ben1, 1 mg/kg oral, average ±S.E.M.
Experimental: as §1, with “week. For a clasping test, mice were suspended by the tail for 30 sec, clasping patterns were graded into the following levels according to the following criteria: 0: no clasping, 1: forelimb clasping only, 2: both forelimb and hindlimb clasping once or twice, 3: 3 times or more clasping for more than 5 sec of both forelimb and hindlimb.” for “week.”
For comparing two samples, an unpaired student's t-test was used. […] For survival rate, a survival distribution curve was plotted with the Kaplan-Meier method, and the survival rate was then calculated with the log-rank testing (all the data were generated with the XLSTAT software). […]

[12] = system: proteasome activity in polyQ-bearing Neuro2a cells; experiment: ubi-dsRED reporter in tNhtt-polyQ-bearing cells; assay type: cell-based, mouse; conditions: Western blotting with anti-RFP antibody; lactacystin 10 μM
Experimental: Neuro2a cells were co-transfected with ubi-dsRED and EGFP expressing (EGFP only, tNhtt-17Q-EGFP or tNhtt-150Q-EGFP) constructs, and 18 hr later, the intensity of ubi-dsRED fluorescence was analyzed by the ArrayScan. […] Each population contained more than 10,000 cells, and distribution between different populations was highly significant. All p<0.0001. […] Lactacystin served as a positive control for UPS blocking.
as §2, §3

[13] = proteasome inhibitor with benzamil, two concentrations

Compound: Cn1cnc(N)c2ncnc1-2 [3-methyladenine]
- effect on the disaggregating effect of benzamil ([1]; 5 mM 3-MA together with 5 μM lactacystin): completely abolished

Compound: CC(C)C[C@@H](C=O)NC(=O)[C@H](CC(C)C)NC(=O)[C@H](CC(C)C)NC(=O)OCc1ccccc1 [MG-132, Z-Leu-Leu-Leu-aldehyde] (Cbz-Leu-Leu-Leu-aldehyde)
- ubi-dsRED cell accumulation [2]: led to ubi-dsRED cell accumulation
- effect on the disaggregating effect of benzamil [1, 13]: attenuated the disaggregating effect exerted by benzamil

Compound: N=C(N)NC(=O)c1nc(Cl)c(N)nc1N [amiloride]
- expression level of tNhtt-16/60/150Q [3]: did not influence the expression level of tNhtt-16/60/150Q
- aggregate trapped on cellulose acetate membrane [4]: reduced the amount of aggregate trapped on a cellulose acetate membrane
- concentration without significant toxicity ([5]; mouse): up to 50 μM
- decrease of cytoplasmic and nuclear aggregates [6]: 40%
- tNhtt-150Qnls-EGFP nuclear aggregates [7]: significantly decreased tNhtt-150Qnls-EGFP nuclear aggregates
- tNhtt-60Q-EGFP and tNhtt-150Q-EGFP cytoplasmic aggregates ([7]; induced 1 day, up to 50 μM, dose-dependent): decreased tNhtt-60Q-EGFP and tNhtt-150Q-EGFP cytoplasmic aggregates

Compound: NC(=NCc1ccccc1)NC(=O)c1nc(Cl)c(N)nc1N [benzamil]
- concentration without significant toxicity ([5]; Neuro2a cells, PI staining): up to 50 μM
- presence in cerebrospinal fluid (CSF) [8]: could be detected and quantified in the cerebrospinal fluid (CSF)
- decrease of aggregates detected by anti-huntingtin (em48) antibody [9]: more than 30%
- decrease of cytoplasmic and nuclear aggregates [6]: 40%
- half-life of soluble tNhtt-60Q [10]: 92.3 ± 7.68 h
- average survival period [11]: 126.1 ± 4.001 days

Compound: CC(=O)N[C@@H](CSC(=O)[C@]1([C@@H](O)C(C)C)NC(=O)[C@H](C)[C@@H]1O)C(=O)O [lactacystin]
- effect on the disaggregating effect of benzamil [1, 13]: attenuated the disaggregating effect exerted by benzamil
- accumulation of ubi-dsRED cells [12]: greatly increased accumulation of ubi-dsRED cells
